Data published in patent US6664214B1, “Uracil compounds and use thereof” (Sumitomo Chemical Company, Limited, priority 1999, dated 2003).

What was measured:
Parameters in all cases: key: 0: little difference in the degree of germination or growth between the treated plants and the untreated plants at the time of examination; 10: the treated plants died completely or their germination or growth was completely inhibited
ivyleaf morningglory [1] = test: Test Example 3: foliar treatment on upland field (Table 4); assay type: in vivo, Ipomoea hederacea; settings: examined 16 days after application, index 0-10
Experimental: (§1) In the examples, the compounds are identified by the Compound Numbers as in Tables 1 to 3. […] A cylindrical plastic pot having a diameter of 10 cm and a depth of 10 cm was filled with soil and seeded with ivyleaf momingglory, velvetleaf and barnyardgrass. These test plants were grown in a greenhouse for 10 days. Then each of compounds listed below was formulated into an emulsifiable concentrate according to Formulation Example 2 and then diluted to the prescribed amount with water containing a spreading agent and the dilution was uniformly sprayed over the foliage of the test plants with sprayer at a rate of 1000 liters per hectare. After the application, the test plants were grown in the greenhouse for 16 days, and the herbicidal activity were determined.

velvetleaf [2] = test: as above; assay type: in vivo, Abutilon theophrasti; settings: examined 16 days after application, index 0-10
Experimental: as §1

velvetleaf [3] = test: Test Example 4: soil surface treatment on upland field (Table 5); assay type: in vivo, Abutilon theophrasti; settings: 500 g/ha active ingredient, examined 12 days after application, index 0-10
Source text: (§2) In the examples, the compounds are identified by the Compound Numbers as in Tables 1 to 3. […] A cylindrical plastic pot having a diameter of 10 cm and a depth of 10 cm was filled with soil and seeded ivyleaf morningglory, velvetleaf and barnyardgrass. Then each of compounds listed below was formulated into an emulsifiable concentrate according to Formulation Example 2 and then diluted to the prescribed amount with water and dilution was uniformly sprayed over the surface of the soil with sprayer at the rate of 1000 liters per hectare. After the application, the test plants were grown in a greenhouse for 12 days, and the herbicidal activity was examined.

ivyleaf morningglory [4] = test: as above; assay type: in vivo, Ipomoea hederacea; settings: 500 g/ha active ingredient, examined 12 days after application, index 0-10
Source text: as §2

large crabgrass = test: Test Example 5: foliar treatment on upland field (Table 6); assay type: in vivo, Digitaria sanguinalis; settings: 125 g/ha, 19 days after application, index 0 to 10
Experimental: In the examples, the compounds are identified by the Compound Numbers as in Tables 1 to 3. […] A pot for plug seedlings seeded with large crabgrass. The test plant was grown in a greenhouse for 14 days, then transplanted into a plastic pot having an area of 17×12 cm^2 and a depth of 7 cm, and further the test plants were grown in the greenhouse for 8 days. Then each of compounds listed below was formulated into an emulsifiable concentrate according to Formulation Example 2 and then diluted to the prescribed amount with water containing a spreading agent and the dilution was uniformly sprayed over the foliage of the test plants with sprayer at a rate of 1000 liters per hectare. After the application, the test plants were grown in the greenhouse for 19 days, and the herbicidal activity were determined.

barnyardgrass [5] = test: Test Example 3: foliar treatment on upland field (Table 4); assay type: in vivo, Echinochloa crus-galli; settings: examined 16 days after application, index 0-10
Experimental: as §1

barnyardgrass [6] = test: Test Example 4: soil surface treatment on upland field (Table 5); assay type: in vivo, Echinochloa crus-galli; settings: 500 g/ha active ingredient, examined 12 days after application, index 0-10
Source text: as §2

Compound | Herbicidal effect Ivyleaf morningglory (ivyleaf morningglory [1]; 125 g/ha active ingredient) | Herbicidal effect Velvetleaf (velvetleaf [2]; 125 g/ha active ingredient) | Herbicidal effect Velvetleaf (velvetleaf [3]) | Herbicidal effect Ivyleaf morningglory (ivyleaf morningglory [4]) | Herbicidal effect Large crabgrass (large crabgrass) | Herbicidal effect Barnyardgrass (barnyardgrass [5]; 125 g/ha active ingredient) | Herbicidal effect Barnyardgrass (barnyardgrass [6]) | Herbicidal effect Ivyleaf morningglory (ivyleaf morningglory [1]; 32 g/ha active ingredient) | Herbicidal effect Velvetleaf (velvetleaf [2]; 32 g/ha active ingredient) | Herbicidal effect Barnyardgrass (barnyardgrass [5]; 32 g/ha active ingredient)
COC(=O)C(C)Oc1ccc(C(Oc2cc(-n3c(=O)cc(C(F)(F)F)n(C)c3=O)c(F)cc2Cl)c2ccccc2)cc1 (centres unmarked) [Compound 1-246, Methyl 2-[4-({2-chloro-4-fluoro-5-[3-methyl-2,6-dioxo-4-(trifluoromethyl)-1,2,3,6-tetrahydropyrimidine-1-yl]phenoxy}(phenyl)methyl)phenoxy]propionate] | 10 | 10 | 10 | 8 | 10 | 8 | 10 |  |  | 
COC(=O)COc1cccc(COc2cc(-n3c(=O)cc(C(F)(F)F)n(C)c3=O)c(F)cc2Cl)c1 [Compound 2-11, Methyl 2-[3-({2-chloro-4-fluoro-5-[3-methyl-2,6-dioxo-4-(trifluoromethyl)-1,2,3,6-tetrahydropyrimidine-1-yl]phenoxy}methyl)phenoxy]acetate] | 10 | 10 | 10 | 10 | 10 | 8 | 9 |  |  | 
COC(=O)C(C)Oc1cccc(C(C)Oc2cc(-n3c(=O)cc(C(F)(F)F)n(C)c3=O)c(F)cc2Cl)c1 (centres unmarked) [Compound 2-21, methyl 2-[3-(1-{2-chloro-4-fluoro-5-[3-methyl-2,6-dioxo-4-(trifluoromethyl)-1,2,3,6-tetrahydropyrimidine-1-yl]phenoxy}ethyl)phenoxy]propionate] |  |  | 10 | 10 | 10 |  | 10 | 10 | 10 | 10
COC(=O)C(C)Oc1cc(COc2cc(-n3c(=O)cc(C(F)(F)F)n(C)c3=O)c(F)cc2Cl)ccc1Cl (centres unmarked) [Compound 2-41, Methyl 2-[2-chloro-5-({2-chloro-4-fluoro-5-[3-methyl-2,6-dioxo-4-(trifluoromethyl)-1,2,3,6-tetrahydropyrimidine-1-yl]phenoxy}methyl)phenoxy]propionate] | 10 | 10 | 10 | 10 | 10 | 10 | 10 |  |  | 
COC(=O)C(C)Oc1cc(COc2cc(-n3c(=O)cc(C(F)(F)F)n(C)c3=O)c(F)cc2Cl)ccc1OC (centres unmarked) [Compound 2-61, Methyl 2-[5-({2-chloro-4-fluoro-5-[3-methyl-2,6-dioxo-4-(trifluoromethyl)-1,2,3,6-tetrahydropyrimidine-1-yl]phenoxy}methyl)-2-methoxyphenoxy]propionate] | 10 | 10 | 10 | 10 | 10 | 10 | 10 |  |  | 
COC(=O)C(C)Oc1cc(COc2cc(-n3c(=O)cc(C(F)(F)F)n(C)c3=O)c(F)cc2Cl)ccc1C (centres unmarked) [Compound 2-101, Methyl 2-[5-({2-chloro-4-fluoro-5-[3-methyl-2,6-dioxo-4-(trifluoromethyl)-1,2,3,6-tetrahydropyrimidine-1-yl]phenoxy}methyl)-2-methylphenoxy]propionate] | 10 | 10 | 10 | 10 | 10 | 10 | 10 |  |  | 
COC(=O)C(C)Oc1ccc(Cl)c(COc2cc(-n3c(=O)cc(C(F)(F)F)n(C)c3=O)c(F)cc2Cl)c1Cl (centres unmarked) [Compound 2-161, Methyl 2-[2,4-dichloro-3-({2-chloro-4-fluoro-5-[3-methyl-2,6-dioxo-4-(trifluoromethyl)-1,2,3,6-tetrahydropyrimidine-1-yl]phenoxy}methyl)phenoxy]propionate] | 10 | 10 | 10 | 6 | 10 | 10 | 5 |  |  | 
COC(=O)C(C)Oc1ccc(Cl)c(COc2cc(-n3c(=O)cc(C(F)(F)F)n(C)c3=O)c(F)cc2Cl)c1 (centres unmarked) [Compound 2-187, Methyl 2-[4-chloro-3-({2-chloro-4-fluoro-5-[3-methyl −2,6-dioxo-4-(trifluoromethyl)-1,2,3,6-tetrahydropyrimidine-1-yl]phenoxy}methyl)phenoxy]propionate] | 10 | 10 | 10 | 10 | 10 | 10 | 9 |  |  | 
